Laboratory results taken from patent US20140080885A1, “METHODS OF TREATING TRAUMATIC BRAIN INJURY” (University of South Florida (A Florida Non-Profit …, priority 2012, published 2014).

System: CA3 layer of the hippocampus in rats 24 hrs following TBI
Assay: Hippocampal damage after TBI (lateral fluid percussion injury), Fluoro-Jade staining of degenerating neurons
Type: in vivo, Male Sprague-Dawley rats
Details: vs vehicle (2.5% DMSO in saline), p<0.0293 ANOVA with Dunnett's post-hoc test
Procedure: FIG. 1 illustrates that Carvedilol treatment reduces hippocampal damage following TBI. Representative images of the CA3 layer of the hippocampus in rats 24 hrs following TBI, vehicle treated (A) and carvedilol treated (B) at 1 and 12 hrs following the insult. […] Images were taken at 4× magnification. Dosing was subcutaneous and the vehicle is 2.5% DMSO in saline.
All animal procedures were conducted in accordance with the NIH Guide for the Care and Use of Laboratory Animals following a protocol approved by the Institutional Animal Care and Use Committee at the University of South Florida. Male Sprague-Dawley rats (Harlan, Indianapolis, Ind.) weighing 250 to 300 g were housed in a climate-controlled room with water and laboratory chow available ad libitum. A total of 33 animals were used in this study.
Induction of Lateral Fluid Percussion Injury (LFPI) Animals were anesthetized using a mixture of ketamine (90 mg/kg)/xylazine (10 mg/kg) (IP). […] Impact pressures were measured using a transducer attached to the point of impact on the fluid percussive device. […]
All quantitation was performed using the NIH Image J software. […] Photomicrographs captured at 200× magnification with an Olympus DP70 camera were used for quantification. […] The channels of the RGB images were split and the green channel was used for quantitation of the FJ staining images. […]

COc1ccccc1OCCNCC(O)COc1cccc2[nH]c3ccccc3c12 (racemic) [Carvedilol, (±)-[3-(9H-carbazol-4-yloxy)-2-hydroxypropyl][2-(2-methoxyphenoxy)ethyl]amine]
hippocampal damage following TBI (subcutaneous dosing at 1 and 12 hrs following the insult): significantly reduces hippocampal damage
hippocampal damage following TBI (subcutaneous dosing at 6 and 12 (hrs) following the insult): significantly reduces hippocampal damage
